According to patent US20170217976A1, “6-(AMINO ACID)-MORPHINAN DERIVATIVES IN COMBINATION WITH PERMEATION […] FOR USE AS AN ORALLY, […], TRA[…] NASALLY AD[…]” (C[…], priority 2014, published 2017):
Read-outs that look alike come from different tables or passages of the source.

What was measured:
[1] = molecular target: T1, human MOR (Homo sapiens, UniProt P35372); test: biochemical; assay type: biochemical; settings: for Emax: read-out: [35S]GTPγS binding, MOR % stim.
T1 construct: expressed in transfected cells; host or cells: CHO cells
Experimental: A number of compounds were evaluated for agonist potency and efficacy at the MOR using the [^35S]GTPγS functional assay in CHO cells expressing human MOR receptors.

[2] = molecular target: T2, MOR (Rattus norvegicus, UniProt P33535); test: Opioid receptor binding, MOR, rat brain membranes
T2 construct: from tissue

[3] = system: mouse vas deferens preparation; test: Mouse vas deferens bioassay; settings: read-out: IC50, agonist potency in mouse vas deferens
Experimental: The mouse vas deferens bioassay was performed as described in: M. Spetea et al., Eur. J. Pharmacol. 2004, 483, 301-308

[4] = molecular target: T3, DOR (Rattus norvegicus, UniProt P33533); test: Opioid receptor binding, DOR, rat brain membranes
T3 construct: from tissue

[5] = molecular target: T4, KOR (Cavia porcellus, UniProt P41144); test: Opioid receptor binding, KOR, guinea pig brain membranes
T4 construct: from tissue

[6] = molecular target: T5, human MOP expressed in CHO cells (Homo sapiens, UniProt P35372); test: [35S]GTPγS binding, antagonism at MOR (Ke against DAMGO); assay type: biochemical
T5 construct: expressed in transfected cells; host or cells: CHO cells (per the unit's head)

[7] = pH-metric determination of pKa, logP and logD in octanol/water (PCA200/Cheqsol); assay type: physicochemical; settings: octanol/water, 25° C.
Experimental: All titrations were performed in 0.15M KCl solution under argon gas. The pKa was determined by the shape of the titration curve and partition coefficients were determined by the shift in titration curve of pKa in the presence of octanol. The analysis of pH-metric data was performed by RefinementPro software (version 2.0, Sirius, Sussex, UK).

[8] = Table 1-4, human MOP expressed in CHO cells, read-out: [35S]GTPγS binding, MOR EC50
[9] = Table 1-4, measured against DAMGO
[10] = Binding Ki (nM) MOR, in vitro binding assay, rat brain membranes
[11] = Binding Ki MOR, Table 1-4, rat brain membranes
[12] = Binding Ki (nM) KOR, in vitro binding assay, guinea pig brain membranes
[13] = Binding Ki KOR, Table 1-4, guinea pig brain membranes
[14] = Binding Ki (nM) DOR, in vitro binding assay, rat brain membranes
[15] = Binding Ki DOR, Table 1-4, rat brain membranes

T2 sequence (P33535 whole entry): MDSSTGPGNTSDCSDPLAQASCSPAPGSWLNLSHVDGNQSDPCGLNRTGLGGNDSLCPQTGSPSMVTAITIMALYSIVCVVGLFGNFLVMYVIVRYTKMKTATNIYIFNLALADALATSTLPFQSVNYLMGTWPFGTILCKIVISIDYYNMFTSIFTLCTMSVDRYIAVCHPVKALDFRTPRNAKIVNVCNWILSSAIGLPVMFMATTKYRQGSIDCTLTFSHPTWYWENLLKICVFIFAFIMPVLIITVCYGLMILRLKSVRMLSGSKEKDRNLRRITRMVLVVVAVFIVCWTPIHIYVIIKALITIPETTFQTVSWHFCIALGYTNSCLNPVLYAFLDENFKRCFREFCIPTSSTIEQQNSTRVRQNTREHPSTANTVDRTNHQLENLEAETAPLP
T4 sequence (P41144 whole entry): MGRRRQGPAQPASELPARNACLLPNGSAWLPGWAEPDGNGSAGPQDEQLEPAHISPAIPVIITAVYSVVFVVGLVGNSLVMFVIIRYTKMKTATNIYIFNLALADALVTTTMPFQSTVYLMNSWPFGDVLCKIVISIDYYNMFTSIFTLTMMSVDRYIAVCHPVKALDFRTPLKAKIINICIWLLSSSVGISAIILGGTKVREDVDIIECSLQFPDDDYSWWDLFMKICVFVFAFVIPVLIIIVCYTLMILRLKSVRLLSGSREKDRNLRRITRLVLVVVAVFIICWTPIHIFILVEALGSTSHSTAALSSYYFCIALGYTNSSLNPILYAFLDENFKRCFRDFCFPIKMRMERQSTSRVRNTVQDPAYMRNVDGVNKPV
T1 sequence (P35372 whole entry): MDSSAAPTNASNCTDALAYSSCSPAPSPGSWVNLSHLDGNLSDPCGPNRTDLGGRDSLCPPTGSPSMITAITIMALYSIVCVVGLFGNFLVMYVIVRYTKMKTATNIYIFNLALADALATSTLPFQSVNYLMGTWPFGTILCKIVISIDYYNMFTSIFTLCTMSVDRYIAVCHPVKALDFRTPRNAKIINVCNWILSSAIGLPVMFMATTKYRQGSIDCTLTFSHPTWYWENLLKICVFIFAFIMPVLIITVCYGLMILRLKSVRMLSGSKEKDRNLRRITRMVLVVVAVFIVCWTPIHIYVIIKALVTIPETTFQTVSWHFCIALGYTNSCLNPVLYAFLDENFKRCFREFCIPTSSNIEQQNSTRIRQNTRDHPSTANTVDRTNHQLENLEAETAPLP
T3 sequence (P33533 whole entry): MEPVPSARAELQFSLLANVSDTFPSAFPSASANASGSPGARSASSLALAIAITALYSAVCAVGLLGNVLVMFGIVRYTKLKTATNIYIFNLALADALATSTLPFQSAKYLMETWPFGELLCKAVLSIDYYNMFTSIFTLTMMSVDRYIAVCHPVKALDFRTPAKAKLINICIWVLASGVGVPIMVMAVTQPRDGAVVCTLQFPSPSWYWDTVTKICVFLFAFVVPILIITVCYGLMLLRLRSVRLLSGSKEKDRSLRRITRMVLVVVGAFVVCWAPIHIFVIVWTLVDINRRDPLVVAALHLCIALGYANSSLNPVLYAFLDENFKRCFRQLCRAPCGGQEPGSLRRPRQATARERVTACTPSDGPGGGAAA
T5 sequence (P35372 whole entry): as the sequence (P35372 whole entry) above

Structure (SMILES) | EC50 [1, 8] | logP [7] | Ki [2, 10] | Ki [2, 11] | Ki [5, 12] | Ki [5, 13] | Ki [4, 14] | Ki [4, 15] | further results
CO[C@@]12CC[C@H](N[C@@H](Cc3ccccc3)C(=O)O)[C@@H]3Oc4c(O)ccc5c4[C@@]31CCN(C)[C@@H]2C5 [Compound 3] | 0.03 nM | – | – | – | – | – | – | – | Emax [1, 9]: 116%
CO[C@@]12CCC(=O)[C@@H]3Oc4c(O)ccc5c4[C@@]31CCN(C)[C@@H]2C5 [Compound 14-OMO, 14-O-methyloxymorphone, reference compound] | 1.17 nM | – | – | – | – | – | – | – | Ki ([2]; Table 1-4, rat brain membranes, read-out: Binding Ki MOR): 0.1 nM; Ki ([2]; in vitro binding assay, rat brain membranes, read-out: Binding Ki (nM) MOR): 0.1 nM; [35S]GTPγS binding, MOR % stim. [1, 9]: 127%; IC50 [3]: 7.76 nM; Ki ([4]; Table 1-4, rat brain membranes, read-out: Binding Ki DOR): 4.8 nM; Ki ([4]; in vitro binding assay, rat brain membranes, read-out: Binding Ki (nM) DOR): 4.8 nM
CO[C@@]12CCC(=O)[C@@H]3Oc4c(O)ccc5c4[C@@]31CCN(CC1CC1)[C@@H]2C5 [Compound 14-OMe-NTX, 14-O-Methylnaltrexone, reference compound] | – | – | – | – | – | – | – | – | Ki ([2]; Binding Ki MOR, Table 1-6, rat brain membranes): 0.46 nM; Ki ([2]; Binding Ki MOR, Table 2-6, rat brain membranes): 0.46 nM; Ki ([5]; Binding Ki KOR, Table 1-6, guinea pig brain membranes): 1.17 nM; Ki ([5]; Binding Ki KOR, Table 2-6, guinea pig brain membranes): 1.17 nM; EC50 [6]: > 10000 nM; Kb ([6]; [35S]GTPγS binding, MOR Ke, Table 1-6, antagonist Ke measured against DAMGO): 0.49 nM; Ki ([4]; Binding Ki DOR, Table 1-6, rat brain membranes): 7.88 nM; Ki ([4]; Binding Ki DOR, Table 2-6, rat brain membranes): 7.88 nM
CO[C@@]12CC[C@H](NCCCC(=O)O)[C@@H]3Oc4c(O)ccc5c4[C@@]31CCN(C)[C@@H]2C5 [Compound 15] | – | -0.36 | – | – | – | – | – | – | EC50 [1]: 1.9 nM; Emax [1]: 113%
CO[C@@]12CC[C@H](N[C@@H](CCC(=O)O)C(=O)O)[C@@H]3Oc4c(O)ccc5c4[C@@]31CCN(C)[C@@H]2C5 [Compound 19] | 1.61 nM | – | – | – | – | – | – | – | –
CO[C@@]12CC[C@H](N[C@@H](CC(N)=O)C(=O)O)[C@@H]3Oc4c(O)ccc5c4[C@@]31CCN(C)[C@@H]2C5 [Compound 26] | 0.64 nM | – | 1.17 nM | 1.17 nM | 74 nM | 74 nM | 3.37 nM | 3.37 nM | Emax [1, 9]: 109%
CO[C@@]12CC[C@@H](N[C@H](C(=O)O)[C@@H](C)O)[C@@H]3Oc4c(O)ccc5c4[C@@]31CCN(C)[C@@H]2C5 [Compound 35] | – | -1.38 | 0.79 nM | 0.79 nM | 58.6 nM | 58.6 nM | 5.16 nM | 5.16 nM | –
CO[C@@]12CC[C@H](N[C@@H](CO)C(=O)O)[C@@H]3Oc4c(O)ccc5c4[C@@]31CCN(C)[C@@H]2C5 [Compound 36] | – | – | 2.21 nM | 2.21 nM | 196 nM | 196 nM | 5.32 nM | 5.32 nM | EC50 [1]: 1.21 nM; Emax [1]: 96%
CO[C@@]12CC[C@@H](N[C@@H](CO)C(=O)O)[C@@H]3Oc4c(O)ccc5c4[C@@]31CCN(C)[C@@H]2C5 [Compound 37] | 3.24 nM | – | 2.14 nM | 2.14 nM | 152 nM | 152 nM | 5.29 nM | 5.29 nM | –
CO[C@@]12CC[C@H](N[C@@H](CCCCN)C(=O)O)[C@@H]3Oc4c(O)ccc5c4[C@@]31CCN(C)[C@@H]2C5 [Compound 38] | – | -0.66 | 0.19 nM | 0.19 nM | 12.6 nM | 12.6 nM | 1.27 nM | 1.27 nM | –
CO[C@@]12CC[C@@H](N[C@@H](CC(=O)O)C(=O)O)[C@@H]3Oc4c(O)ccc5c4[C@@]31CCN(C)[C@@H]2C5 [Compound 45] | – | -2.2 | – | – | – | – | – | – | –
